From ChEMBL document CHEMBL1201862, “PubChem BioAssay data set” (2004)
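Step 1: Grow cells in 96-well plates. Step 2: Expose to compound for 48 hours at 5 concentrations. Step 3: Interpolate endpoints linearly; if unreached, use highest concentration. At the GI50, growth is halved.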 Calls of active or inactive are those of the source. Rule as the data show it: active = GI50 up to about 1.1 µM and inactive = higher.

Legend:
Assay in all cases: NCI-60 cell line screen, 48 h
[1] = test system: COLO 205
[2] = test system: EKVX
[3] = test system: HT-29
[4] = test system: Hs-578T
[5] = test system: M14
[6] = test system: MDA-MB-231
[7] = test system: MDA-MB-435
[8] = test system: MDA-N
[9] = test system: NCI-H460
[10] = test system: NCI-H522
[11] = test system: OVCAR-4
[12] = test system: RXF 393
[13] = test system: SF-295
[14] = test system: SK-MEL-2
[15] = test system: SK-MEL-5
[16] = test system: SK-OV-3
[17] = test system: SW-620
[18] = test system: TK-10
[19] = test system: UACC-62
[20] = test system: UO-31

Measured: GI50

CN(C)Cc1ccc(O)c(CN(C)C)n1
inactive: [1] > 100 µM | [2] > 100 µM | [3] > 100 µM | [4] > 100 µM | [5] > 100 µM | [6] > 100 µM | [7] > 100 µM | [8] > 100 µM | [9] > 100 µM | [10] > 100 µM | [11] > 100 µM | [12] > 100 µM | [13] > 100 µM | [14] > 100 µM | [15] > 100 µM | [16] > 100 µM | [17] > 100 µM | [18] > 100 µM | [19] > 100 µM | [20] > 100 µM

Cn1nnc2c3c(N(CCO)CCO)ccnc3ccc21
inactive: [1] 95.9 µM | [2] > 100 µM | [3] 89.3 µM | [4] > 100 µM | [5] > 100 µM | [6] > 100 µM | [7] > 100 µM | [8] > 100 µM | [9] 39.9 µM | [10] > 10 µM | [11] > 100 µM | [12] > 100 µM | [13] > 100 µM | [14] > 100 µM | [15] > 100 µM | [16] > 100 µM | [17] > 100 µM | [18] > 100 µM | [19] > 100 µM | [20] > 100 µM

O=C(O)c1cnccc1-c1cc(=O)[nH]n1-c1ccccc1
inactive: [1] 16 µM | [2] > 53.1 µM | [3] 21.4 µM | [4] > 91.8 µM | [5] 10.8 µM | [6] > 100 µM | [7] 46 µM | [8] 41.8 µM | [9] 35 µM | [10] > 63.4 µM | [11] > 51.9 µM | [12] 98.6 µM | [13] 21.6 µM | [14] > 63.2 µM | [15] 52.4 µM | [16] > 100 µM | [17] > 23.2 µM | [18] > 100 µM | [19] 17.4 µM | [20] 27.9 µM

CCC1([N+](=O)[O-])CN(N=O)C1
inactive: [1] > 100 µM | [2] > 100 µM | [3] > 100 µM | [4] > 100 µM | [5] > 100 µM | [6] > 100 µM | [7] > 100 µM | [8] > 100 µM | [9] > 100 µM | [10] > 100 µM | [11] > 100 µM | [12] > 100 µM | [13] > 100 µM | [14] > 100 µM | [15] > 100 µM | [16] > 100 µM | [17] > 100 µM | [18] > 100 µM | [19] > 100 µM | [20] > 100 µM

C[N+](C)(CCNC(=O)c1cccc2cc3ccccc3nc12)Cc1ccc([N+](=O)[O-])cc1
inactive: [1] > 100 µM | [2] > 100 µM | [3] > 100 µM | [4] > 100 µM | [5] > 100 µM | [6] > 100 µM | [7] > 100 µM | [8] > 100 µM | [9] > 100 µM | [10] > 100 µM | [11] > 100 µM | [12] > 100 µM | [13] > 100 µM | [14] > 100 µM | [15] 50 µM | [16] > 100 µM | [17] > 100 µM | [18] > 100 µM | [19] > 100 µM | [20] > 100 µM
